Measurements taken from publication PMC11079064, “Discovery of a brain penetrant small molecule antagonist targeting LPA1 receptors to reduce neuroinflammation and promote remyelination in multiple sclerosis” (Scientific Reports, 2024).

Columns and labels:
[1] = molecular target: T1, human LPA1 (Homo sapiens, UniProt Q92633); assay: Functional calcium mobilization assay; assay type: cell-based; conditions: 24 h pre-incubation prior to LPA addition; read-out: Functional LPA1 Ca^+2 mobilization
T1 construct: expressed in transfected cells
Experimental: Intracellular calcium was monitored with Fluo-4 (Molecular Devices). Dye was made up in HBSS with 0.1% (w/v) BSA and 2.5 mM probenecid. Plates were read using a FlexStation 3 (Molecular Devices, Sunnyvale, CA). Calcium response was generated by the simultaneous addition of the EC80 of LPA.
On the day of assay, media was removed and replaced with dye and 3× fresh compound in HBSS−/− with 0.1% BSA and incubated for 1 h.
30-min assay: Antagonists were added to plates after dye loading was complete at a 3× concentration in HBSS−/− with 0.1% BSA and incubated for 30 min.

[2] = test system: off-target panel (SAFETYscan E/IC50 ELECT); assay: Eurofins off-target panel (SAFETYscan E/IC50 ELECT); conditions: test concentration 30 µM
Excerpt: Supplemental Figure 1. Results from Eurofins SAFETYscan E/IC50 ELECT.

[3] = Plasma concentration time course after oral dose; assay type: in vivo; conditions: 3 mg/kg oral, mouse
[4] = test system: rat OPCs; assay: OPC-macrophage Transwell co-culture; assay type: cell-based; conditions: in presence of macrophages, 300 nM
Experimental: Following PDGF withdrawal, we observed a 41% decrease in the number of MBP^+ oligodendrocytes when co-cultured with macrophages.
OPCs were isolated as previously described. Cells were plated on the membrane layer of poly-L-lysine (Millipore Sigma, St. Louis, MO) coated Transwell culture plates (VWR, Radnor, PA) at a seeding density of 1 × 10^6 cells per well. Transwell culture plates have microporous membrane which allows for factors to flow between the top and bottom chamber. This permits us to minimize direct contact between the macrophage and OPCs while allowing for a constant, renewable source unlike conditioned media which can be depleted. […]
Isolation of macrophages. […] Differentiated oligodendrocytes were detected with a rat monoclonal antibody to MBP (Millipore Sigma, St. Louis, MO) and OPCs were detected with a rabbit monoclonal antibody to PDGFRα (Santa Cruz Biotechnology, Dallas, TX). Macrophages were detected with CD68 (Santa Cruz Biotechnology, Dallas, TX). […] Images were acquired using a 20× objective, each well was read in a 5 × 5 matrix. Data were analyzed using GraphPad Prism (La Jolla, CA) and statistical significance was determined by ANOVA.

[5] = test system: MOG-EAE mouse model; assay: MOG-EAE mouse model, visual evoked potentials; assay type: in vivo; conditions: day 21
Experimental: To further assess myelin status, we measured conductance velocity in the optic nerve, a heavily myelinated tract that is sensitive to demyelination. To measure conductance, we utilized visual evoked potentials (VEPs), a measure for which clinical translatability makes it an especially salient endpoint[42],[43]. VEPs were measured on day 21. […] In comparison, latency in MOG immunized animals had slowed to 60.9 ms.
VEP recordings were conducted 21–24 days post-MOG induction (for simplification, this will be referred to as a nominal Day 21 VEP throughout this document). To do this, animals were placed in a room with red light conditions and allowed to adapt for 1 h. Animals were anesthetized with an intraperitoneal injection of ketamine/Xyalazine (75/10 mg/kg). Pupils were dilated with 1.0% tropicamide (1 drop per eye) (Akorn Pharmaceuticals, Lake Forest, IL). One minute following application tropicamide, one drop of Genteal (Alcon Laboratories, Fort Worth, TX) was applied to each eye to maintain ocular moisture during anesthesia.
VEPs were conducted using a Celeris system (Diagnosys, Lowell, MA). […] Flash VEPs were recorded from each eye independently and simultaneously. […] VEP waveforms were analyzed using Espion (Diagnosys, Lowell, MA). N1 latency for each eye was determined by averaging N1 from 3 independent VEP traces. Similarly, P1–N1 and N1–P1 amplitudes were determined. […]

T1 sequence (Q92633 whole entry): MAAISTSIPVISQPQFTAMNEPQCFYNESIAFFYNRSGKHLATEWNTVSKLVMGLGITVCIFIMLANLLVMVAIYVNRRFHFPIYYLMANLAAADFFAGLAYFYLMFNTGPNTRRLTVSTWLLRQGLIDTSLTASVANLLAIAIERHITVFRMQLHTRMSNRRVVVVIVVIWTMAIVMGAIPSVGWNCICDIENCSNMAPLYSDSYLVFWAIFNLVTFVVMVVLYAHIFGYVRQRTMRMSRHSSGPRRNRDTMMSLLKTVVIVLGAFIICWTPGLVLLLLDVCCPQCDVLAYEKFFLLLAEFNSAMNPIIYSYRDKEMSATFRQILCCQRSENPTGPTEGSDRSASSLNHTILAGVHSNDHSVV

SMILES: COc1ccc(NC(=O)N(c2ccccc2C(C)C)C2CCC(C(=O)O)CC2)c(OC(F)F)n1 (stereo not shown) [PIPE-791]
- IC50 [1]: 9.9 nM
- off-target activities [2]: no appreciable activities
- plasma concentration after 3 days [3]: below the limit of detection
- time of peak plasma concentration [3]: 2 h
- increase in differentiation versus vehicle treated cultures [4]: 2.1 fold
- VEP N1 latency ([5]; 0.3 mg/kg): 54.6 ms
- VEP N1 latency ([5]; 3 mg/kg): 52 ms
